Patent US8282688B2, “Laccase mediators and methods of use” (Danisco US Inc., priority 2006, dated 2012)
Values joined by “and” are separate entries in the source; they are usually repeats but may differ in a detail not shown here. Identical values can stand only once.

Legend:
[1] = tested on: recombinant laccase D from C. unicolor; experiment: Bleaching of denim swatches with recombinant C. unicolor laccase D (Example 5); type: biochemical; design: key to ΔE (total color difference) Denim swatch Backside / ΔE (total color difference) Denim swatch Frontside: CIE L*a*b* differences, initial minus final; ΔE=(ΔL²+Δa²+Δb²)^1/2
Method: Denim legs (made out of sulfur bottom/indigo dyed denim fabric from Cone Mill, style number 1662P) were pretreated with IndiAge® 2XL at a dose of 1 gram per liter in a 50 lb lab scale tumbling washer. The liquor ratio was 6 to 1 (5 kg substrate in 30 liters of water) and the treatment was performed at 55° C. at pH 4.5 for 1 hour. A warm rinse followed the cellulase treatment, after which the fabric was dried in a tumble dryer. A punch press was used to cut ⅝ inch denim disks from IndiAge® 2XL pretreated denim legs. Each denim disk is pre read with a Chroma Meter CR-200 by Minolta in order to determine the CIE L*a*b* values of both the front and backside of the fabric disk.
One denim disk is placed in each well of two duplicate 12 well micro-titer plates. Each well received C. unicolor laccase (20 uL of 1/20 dilution, approx. 20 ppm), mediator (200, 100, 50 or 20 uL of a 20 mM stock solution in methanol) and 50 mM potassium phosphate buffer, pH 6 for a total volume of 2 mL/well. The mediators were methyl syringate (MS), 4-cyano-2,6-dimethoxyphenol (SN) and 3,4,5-trimethoxyphenol (TMP). The plates were sealed and incubated at 50° C. for 2 hours at 150 rpm in a standard incubator. Following this period, the swatches were removed from the plates and carefully placed on a filter paper in a Buchner funnel and washed with copious amounts of water, followed by drying of the residual water under high vacuum overnight. The swatches were then re-read with the chromometer in order to determine the CIE L*a*b* values of both the front and backside of the disk following bleaching. The total color difference (ΔE) is calculated from the difference between the initial and final CIE L*a*b* values according to the formula ΔE=(ΔL^2+Δa^2+Δb^2)^1/2 The total color differences (ΔE) as a function of mediator concentration are plotted in FIGS. 5 and 6.
A denim swatch bleaching assay was performed as described in Example 16, in this instance, using a recombinant form of the laccase D protein derived from C. unicolor.
Two duplicate 12-well plates were loaded with denim disks. The laccase D stock solution (5.5 ABTS units per mL) was dosed at either 25 or 50 uL per well. The mediators used were methyl syringate (MS), 4-cyano-2,6-dimethoxyphenol (SN) and 4-carboxamido-2,6-dimethoxyphenol (SA) and were used at either 0.5 or 1 mM concentration. The results are depicted in FIGS. 7 and 8.

C. unicolor laccase = experiment: Stability of mediators in the presence of C. unicolor laccase, LC/MS of supernatant (Example 6); type: physicochemical; conditions: for Initial Peak Area / Final Peak Area: LC/MS; for Initial Peak Area: 1 mM standard solution of mediator; for Final Peak Area: supernatant after denim disk bleaching; for Final Peak Area / % Remaining: 2 hours at 50° C.; for % Remaining: supernatant after contact with laccase and denim
Method: Aliquots of supernatant were analyzed by LC/MS following the denim disk bleaching protocol described in Example 5 in order to determine the final mediator concentrations in the supernatant following the 2 hour incubation period.
Standard solutions of the mediators were prepared by dilution of the methanolic stock solutions (20 mM) into deionized water, such that the final concentrations were 1 mM respectively for each of the three mediators methyl syringate (MS), 4-cyano-2,6-dimethoxyphenol (SN) and, 4-carboxamido-2,6-dimethoxyphenol (SA). Samples were analyzed using a Thermo Finnegan Quantum TSQ LC/MS system (Thermo Finnegan, San Jose, Calif.) operating in positive electrospray ionization mode. The liquid chromatography conditions were as follows: • Column; Agilent Zorbax SB-Aq, 2.1 mm×100 mm, […] silica • Solvent A; 20 mM Ammonium formate, pH 5.0 • Solvent B; 90% Methanol+10% solvent A • Flow rate; 250 uL/min • Injection volume; 5 uL • Elution program; 70% solvent A from 0 to 1 minute, to 30% A from 3 to 4 minutes, back to 70% A at 4.5 minutes, held at 70% A until 8 minutes overall.
The Mass spectrometry conditions were as follows: • Positive mode electrospray ionization (+ve ESI) in full scan mode, scanning from 175 to 240 Da in 0.5 seconds. • Spray voltage was 4200V, sheath gas flow rate 41 mL/min, aux gas flow rate at 15 mL/min. Tube lens voltage was 109V and capillary temperature was 270° C.

[2] = mediator 0.5 mM, laccase D stock (5.5 U/mL) 25 uL
[3] = mediator 0.5 mM, laccase D stock (5.5 U/mL) 50 uL
[4] = mediator 1 mM, laccase D stock (5.5 U/mL) 25 uL
[5] = mediator 1 mM, laccase D stock (5.5 U/mL) 50 uL

Row | Compound | ΔE (total color difference) Denim swatch Backside [1, 2] | ΔE (total color difference) Denim swatch Frontside [1, 2] | ΔL Denim swatch Backside [1, 2] | ΔL Denim swatch Frontside [1, 2] | Δb Denim swatch Backside [1, 2] | Δb Denim swatch Frontside [1, 2] | ΔE (total color difference) Denim swatch Backside [1, 3] | ΔE (total color difference) Denim swatch Frontside [1, 3] | ΔL Denim swatch Backside [1, 3] | ΔL Denim swatch Frontside [1, 3] | Δb Denim swatch Backside [1, 3] | Δb Denim swatch Frontside [1, 3] | ΔE (total color difference) Denim swatch Backside [1, 4] | ΔE (total color difference) Denim swatch Frontside [1, 4] | ΔL Denim swatch Backside [1, 4] | ΔL Denim swatch Frontside [1, 4] | Δb Denim swatch Backside [1, 4] | Δb Denim swatch Frontside [1, 4] | ΔE (total color difference) Denim swatch Backside [1, 5] | ΔE (total color difference) Denim swatch Frontside [1, 5] | also measured
1 | COc1cc(C(N)=O)cc(OC)c1O [SA, 4-carboxamido-2,6-dimethoxyphenol] | 6.69 and 6.39 | 5.07 and 5.70 | 4.94 and 4.93 | 4.73 and 5.28 | 4.51 and 4.05 | 1.16 and 1.47 | 6.15 and 6.71 | 3.96 and 4.75 | 4.64 and 5.25 | 3.66 and 4.46 | 4.04 and 4.17 | 0.87 and 0.88 | 8.92 and 8.37 | 7.55 and 7.70 | 7.02 and 6.53 | 7.07 and 7.19 | 5.51 and 5.22 | 1.76 and 1.68 | 8.72 and 9.16 | 6.72 and 7.93 | ΔL Denim swatch Backside [1, 5]: 6.52 and 6.82; ΔL Denim swatch Frontside [1, 5]: 6.23 and 7.37; Δa Denim swatch Backside [1, 5]: 0.15 and 0.10; Δb Denim swatch Backside [1, 5]: 5.79 and 6.12; Δb Denim swatch Frontside [1, 5]: 1.73 and 2.11; Initial Peak Area (C. unicolor laccase): 122 × 10^7; Final Peak Area (C. unicolor laccase): 0.94 × 10^7; % Remaining (C. unicolor laccase): 7.8%
2 | COc1cc(C#N)cc(OC)c1O [SN, 4-cyano-2,6-dimethoxyphenol] | 11.62 and 11.54 | 9.98 and 10.48 | 9.69 and 9.31 | 9.23 and 9.73 | 6.41 and 6.81 | 3.12 and 3.39 | 10.67 and 10.48 | 8.70 and 9.31 | 8.87 and 8.45 | 8.20 and 8.67 | 5.93 and 6.19 | 2.34 and 2.90 | 13.85 and 13.07 | 13.24 and 13.88 | 11.36 and 10.64 | 12.31 and 12.85 | 7.93 and 7.59 | 4.36 and 4.85 | 14.05 and 14.15 | 14.18 and 14.15 | Δa Denim swatch Backside [1, 3]: 0.26 and 0.33; ΔL Denim swatch Backside [1, 5]: 11.25 and 10.98; ΔL Denim swatch Frontside [1, 5]: 12.98 and 12.85; Δa Denim swatch Backside [1, 5]: 0.29 and 0.48; Δb Denim swatch Backside [1, 5]: 8.41 and 8.91; Δb Denim swatch Frontside [1, 5]: 5.33 and 5.50; effectiveness as mediator for swatch bleaching ([1]; recombinant laccase D, mediator 0.5 or 1 mM): most effective mediator; Initial Peak Area (C. unicolor laccase): 35.6 × 10^7; Final Peak Area (C. unicolor laccase): 35.2 × 10^7; % Remaining (C. unicolor laccase): 98.9%
